{"source": "patent US20250163104A1", "about": "“MACROCYCLIC IMMUNOMODULATORS” (priority 2021, published 2025)", "note": "Where a SMILES comes first, the peptide text is derived from it. Bridges are numbered along the chain shown (N, C = ends). [ ]: non-standard residue; d: D form. The star is where a group is joined. ξ: configuration not given here. Phe(4-COOH) = N[C@@H](Cc1ccc(C(=O)O)cc1)C(=O)O; Bip = N[C@@H](Cc1ccc(-c2ccccc2)cc1)C(=O)O; Phe(3-Me) = Cc1cccc(C[C@H](N)C(=O)O)c1; hArg = N=C(N)NCCCC[C@H](N)C(=O)O; 4Pal = N[C@@H](Cc1ccncc1)C(=O)O; Cha = N[C@@H](CC1CCCCC1)C(=O)O; Thr(3ξ) = CC(O)[C@H](N)C(=O)O; NMeNle = CCCC[C@H](NC)C(=O)O; Carboxymethyl = O=C(O)C*; Orn = NCCC[C@H](N)C(=O)O; Dab = NCC[C@H](N)C(=O)O; Dap = NC[C@H](N)C(=O)O", "data": [{"target": "T1, human PD-1 / PD-L1-Ig binding on Jurkat cell line over-expressing human PD-1 (Jurkat-PD-1) (Homo sapiens, UniProt Q15116)", "T1 construct": "expressed in transfected cells; host or cells: Jurkat", "T1 sequence (Q15116 25-288)": "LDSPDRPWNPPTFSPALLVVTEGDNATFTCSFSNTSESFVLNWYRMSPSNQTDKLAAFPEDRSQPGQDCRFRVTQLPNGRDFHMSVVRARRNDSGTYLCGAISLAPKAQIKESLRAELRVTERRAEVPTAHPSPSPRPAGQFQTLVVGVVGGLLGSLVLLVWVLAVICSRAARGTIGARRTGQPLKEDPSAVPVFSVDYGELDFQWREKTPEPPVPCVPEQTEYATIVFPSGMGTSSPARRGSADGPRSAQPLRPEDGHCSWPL", "test": "Jurkat-PD-1 Cell Binding High-Content Screening Assay (CBA)", "assay_type": "cell-based", "conditions": "Jurkat-PD-1 cells, PE-labeled PD-L1-Ig 20 nM final; read-out: Jurkat HPD1_PDL1 IC50", "summary_of_the_method": "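Cell-bound PE-labeled PD-L1-Ig (20 nM final, 1 h) measured by high-content imaging after fixation and Hoechst 33342 counterstain. Compound was applied first for 2 h at 37° C. to Jurkat cells over-expressing human PD-1 in DMEM with 10% FCS.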", "units": {"IC50": "nM"}, "values": [{"smiles": "CC(C)[C@@H]1NC(=O)[C@H](Cc2c[nH]c3ccccc23)NC(=O)[C@H](CC(=O)O)NC(=O)[C@H](Cc2ccc(C(=O)O)cc2)NC(=O)[C@H](Cc2ccncc2)NC(=O)CSC[C@@H](C(=O)NCC(N)=O)NC(=O)[C@H](CO)NC(=O)[C@H](C(C)C)NC(=O)[C@H](CC2CCCCC2)NC(=O)[C@H](CCN)NC(=O)[C@@H](C)NC(=O)[C@H](CCCN)NC(=O)[C@H](CCN)NC(=O)[C@H](Cc2ccc(-c3ccccc3)cc2)NC1=O", "note": "[Compound 2544] ({CH2CO}-[4Pal][Phe(4-COOH)]DWV[Bip][Dab][Orn][dA][Dab][Cha]VSCG-NH2; thioether N-14)", "IC50": 80.6}, {"smiles": "CC(C)C[C@H]1NC(=O)[C@H](CCCN)NC(=O)[C@H](C(C)C)NC(=O)[C@H](Cc2ccc(-c3ccccc3)cc2)NC(=O)[C@H](C(C)C)NC(=O)[C@H](Cc2c[nH]c3ccccc23)NC(=O)[C@H](CC(=O)O)NC(=O)[C@H](Cc2ccc(OCC(=O)O)cc2)NC(=O)[C@H](CCCCNC(=N)N)NC(=O)CSC[C@@H](C(=O)N[C@@H](CC(N)=O)C(N)=O)NC(=O)[C@H](C(C)O)NC(=O)[C@H](C(C)C)NC(=O)[C@H](CC2CCCCC2)NC(=O)[C@H](CCN)NC1=O", "note": "(stereo partly drawn) [Compound 2546] ({CH2CO}-[hArg]Y(Carboxymethyl)DWV[Bip]V[Orn][dL][Dab][Cha]V[Thr(3ξ)]CN-NH2; thioether N-14)", "IC50": 7.5}, {"smiles": "CC(C)C[C@H]1NC(=O)[C@H](CCCN)NC(=O)[C@H](C(C)C)NC(=O)[C@H](Cc2ccc(-c3ccccc3)cc2)NC(=O)[C@H](C(C)C)NC(=O)[C@H](Cc2c[nH]c3ccccc23)NC(=O)[C@H](CC(=O)O)NC(=O)[C@H](Cc2ccc(OCC(=O)O)cc2)NC(=O)[C@H](Cc2cnc[nH]2)NC(=O)CSC[C@@H](C(=O)N[C@@H](CC(N)=O)C(N)=O)NC(=O)[C@H](C(C)O)NC(=O)[C@H](C(C)C)NC(=O)[C@H](CC2CCCCC2)NC(=O)[C@H](CCN)NC1=O", "note": "(stereo partly drawn) [Compound 2548] ({CH2CO}-HY(Carboxymethyl)DWV[Bip]V[Orn][dL][Dab][Cha]V[Thr(3ξ)]CN-NH2; thioether N-14)", "IC50": 5.9}, {"smiles": "CC(C)C[C@H]1NC(=O)[C@H](CCCN)NC(=O)[C@H](C(C)C)NC(=O)[C@H](Cc2ccc(-c3ccccc3)cc2)NC(=O)[C@H](C(C)C)NC(=O)[C@H](Cc2c[nH]c3ccccc23)NC(=O)[C@H](CC(=O)O)NC(=O)[C@H](Cc2ccc(O)cc2)NC(=O)[C@H](C(C)O)NC(=O)CSC[C@@H](C(=O)N[C@@H](CC(N)=O)C(N)=O)NC(=O)[C@H](C(C)O)NC(=O)[C@H](C(C)C)NC(=O)[C@H](CC2CCCCC2)NC(=O)[C@H](CCN)NC1=O", "note": "(stereo partly drawn) [Compound 2549] ({CH2CO}-[Thr(3ξ)]YDWV[Bip]V[Orn][dL][Dab][Cha]V[Thr(3ξ)]CN-NH2; thioether N-14)", "IC50": 12.5}, {"smiles": "CC(C)C[C@H]1NC(=O)[C@H](CCCN)NC(=O)[C@H](C(C)C)NC(=O)[C@H](Cc2ccc(-c3ccccc3)cc2)NC(=O)[C@H](C(C)C)NC(=O)[C@H](Cc2c[nH]c3ccccc23)NC(=O)[C@H](CC(=O)O)NC(=O)[C@H](Cc2ccc(OCC(=O)O)cc2)NC(=O)[C@H](C(C)O)NC(=O)CSC[C@@H](C(=O)N[C@@H](CC(N)=O)C(N)=O)NC(=O)[C@H](CO)NC(=O)[C@H](C(C)C)NC(=O)[C@H](CC2CCCCC2)NC(=O)[C@H](CCN)NC1=O", "note": "(stereo partly drawn) [Compound 2550] ({CH2CO}-[Thr(3ξ)]Y(Carboxymethyl)DWV[Bip]V[Orn][dL][Dab][Cha]VSCN-NH2; thioether N-14)", "IC50": 4.9}, {"smiles": "CCCC[C@H]1C(=O)N[C@@H](Cc2ccc(C(=O)O)cc2)C(=O)N[C@@H](CC(=O)O)C(=O)N[C@@H](Cc2c[nH]c3ccccc23)C(=O)N[C@@H](C(C)C)C(=O)N[C@@H](Cc2ccc(-c3ccccc3)cc2)C(=O)N[C@@H](C(C)C)C(=O)N[C@@H](CCCN)C(=O)N[C@H](CC(C)C)C(=O)N[C@@H](CCN)C(=O)N[C@@H](CC2CCCCC2)C(=O)N[C@@H](C(C)C)C(=O)N[C@@H](C(C)O)C(=O)N[C@H](C(=O)N[C@@H](CC(N)=O)C(N)=O)CSCC(=O)N1C", "note": "(stereo partly drawn) [Compound 2551] ({CH2CO}-[NMeNle][Phe(4-COOH)]DWV[Bip]V[Orn][dL][Dab][Cha]V[Thr(3ξ)]CN-NH2; thioether N-14)", "IC50": 92.5}, {"smiles": "CC(C)C[C@H]1NC(=O)[C@H](CCCN)NC(=O)[C@H](C(C)O)NC(=O)[C@H](Cc2ccc(-c3ccccc3)cc2)NC(=O)[C@H](C(C)C)NC(=O)[C@H](Cc2c[nH]c3ccccc23)NC(=O)[C@H](CC(=O)O)NC(=O)[C@H](Cc2ccc(OCC(=O)O)cc2)NC(=O)[C@H](CN)NC(=O)CSC[C@@H](C(=O)N[C@@H](CC(N)=O)C(N)=O)NC(=O)[C@H](C(C)O)NC(=O)[C@H](C(C)C)NC(=O)[C@H](CC2CCCCC2)NC(=O)[C@H](Cc2c[nH]cn2)NC1=O", "note": "(stereo partly drawn) [Compound 2552] ({CH2CO}-[Dap]Y(Carboxymethyl)DWV[Bip][Thr(3ξ)][Orn][dL]H[Cha]V[Thr(3ξ)]CN-NH2; thioether N-14)", "IC50": 28.6}, {"smiles": "CCCC[C@H]1C(=O)N[C@@H](Cc2ccc(OCC(=O)O)cc2)C(=O)N[C@@H](CC(=O)O)C(=O)N[C@@H](Cc2cccc(C)c2)C(=O)N[C@@H](C(C)C)C(=O)N[C@@H](Cc2ccc(-c3ccccc3)cc2)C(=O)N[C@@H](C(C)O)C(=O)N[C@@H](CCCN)C(=O)N[C@H](CC(C)C)C(=O)N[C@@H](CCN)C(=O)N[C@@H](CC2CCCCC2)C(=O)N[C@@H](C(C)C)C(=O)N[C@@H](C(C)O)C(=O)N[C@H](C(=O)N[C@@H](CC(N)=O)C(N)=O)CSCC(=O)N1C", "note": "(stereo partly drawn) [Compound 2553] ({CH2CO}-[NMeNle]Y(Carboxymethyl)D[Phe(3-Me)]V[Bip][Thr(3ξ)][Orn][dL][Dab][Cha]V[Thr(3ξ)]CN-NH2; thioether N-14)", "IC50": 24.6}, {"smiles": "CC(C)[C@@H]1NC(=O)[C@H](Cc2c[nH]c3ccccc23)NC(=O)[C@H](CC(=O)O)NC(=O)[C@H](Cc2ccc(OCC(=O)O)cc2)NC(=O)[C@H](CCCCNC(=N)N)NC(=O)CSC[C@@H](C(=O)N[C@@H](CC(N)=O)C(N)=O)NC(=O)[C@H](CO)NC(=O)[C@H](C(C)C)NC(=O)[C@H](CC2CCCCC2)NC(=O)[C@H](CCN)NC(=O)[C@@H](C)NC(=O)[C@H](CCCN)NC(=O)[C@H](CC(N)=O)NC(=O)[C@H](Cc2ccc(-c3ccccc3)cc2)NC1=O", "note": "[Compound 2554] ({CH2CO}-[hArg]Y(Carboxymethyl)DWV[Bip]N[Orn][dA][Dab][Cha]VSCN-NH2; thioether N-14)", "IC50": 16.9}, {"smiles": "CC(C)C[C@H]1NC(=O)[C@H](CCCN)NC(=O)[C@H](C(C)C)NC(=O)[C@H](Cc2ccc(-c3ccccc3)cc2)NC(=O)[C@H](C(C)C)NC(=O)[C@H](Cc2c[nH]c3ccccc23)NC(=O)[C@H](CC(=O)O)NC(=O)[C@H](Cc2ccc(OCC(=O)O)cc2)NC(=O)[C@H](CCCCNC(=N)N)NC(=O)CSC[C@@H](C(=O)N[C@@H](C)C(N)=O)NC(=O)[C@H](C(C)O)NC(=O)[C@H](C(C)C)NC(=O)[C@H](CC2CCCCC2)NC(=O)[C@H](Cc2c[nH]cn2)NC1=O", "note": "(stereo partly drawn) [Compound 2555]", "IC50": 19.5}, {"smiles": "CC(C)C[C@@H]1NC(=O)[C@H](Cc2c[nH]c3ccccc23)NC(=O)[C@H](CC(=O)O)NC(=O)[C@H](Cc2ccc(OCC(=O)O)cc2)NC(=O)[C@H](C(C)O)NC(=O)CSC[C@@H](C(=O)N[C@@H](CC(N)=O)C(N)=O)NC(=O)[C@H](CO)NC(=O)[C@H](C(C)C)NC(=O)[C@H](CC2CCCCC2)NC(=O)[C@H](CCN)NC(=O)[C@@H](CC(C)C)NC(=O)[C@H](CCCN)NC(=O)[C@H](CC(N)=O)NC(=O)[C@H](Cc2ccc(-c3ccccc3)cc2)NC1=O", "note": "(stereo partly drawn) [Compound 2557] ({CH2CO}-[Thr(3ξ)]Y(Carboxymethyl)DWL[Bip]N[Orn][dL][Dab][Cha]VSCN-NH2; thioether N-14)", "IC50": 68.6}, {"smiles": "CC(C)C[C@@H]1NC(=O)[C@H](Cc2c[nH]c3ccccc23)NC(=O)[C@H](CC(=O)O)NC(=O)[C@H](Cc2ccc(OCC(=O)O)cc2)NC(=O)[C@H](CCN)NC(=O)CSC[C@@H](C(=O)N[C@@H](CC(N)=O)C(N)=O)NC(=O)[C@H](CO)NC(=O)[C@H](C(C)C)NC(=O)[C@H](CC2CCCCC2)NC(=O)[C@H](CCN)NC(=O)[C@@H](CC(C)C)NC(=O)[C@H](CCCN)NC(=O)[C@H](C(C)O)NC(=O)[C@H](Cc2ccc(-c3ccccc3)cc2)NC1=O", "note": "(stereo partly drawn) [Compound 2558] ({CH2CO}-[Dab]Y(Carboxymethyl)DWL[Bip][Thr(3ξ)][Orn][dL][Dab][Cha]VSCN-NH2; thioether N-14)", "IC50": 14}, {"smiles": "CC(C)C[C@@H]1NC(=O)[C@H](Cc2c[nH]c3ccccc23)NC(=O)[C@H](CC(=O)O)NC(=O)[C@H](Cc2ccc(OCC(=O)O)cc2)NC(=O)[C@H](C(C)O)NC(=O)CSC[C@@H](C(=O)N[C@@H](CC(N)=O)C(N)=O)NC(=O)[C@H](CO)NC(=O)[C@H](C(C)C)NC(=O)[C@H](CC2CCCCC2)NC(=O)[C@H](CCN)NC(=O)[C@@H](CC(C)C)NC(=O)[C@H](CCCN)NC(=O)[C@H](C(C)O)NC(=O)[C@H](Cc2ccc(-c3ccccc3)cc2)NC1=O", "note": "(stereo partly drawn) [Compound 2559] ({CH2CO}-[Thr(3ξ)]Y(Carboxymethyl)DWL[Bip][Thr(3ξ)][Orn][dL][Dab][Cha]VSCN-NH2; thioether N-14)", "IC50": 24.8}, {"smiles": "CC(C)C[C@H]1NC(=O)[C@H](CCCN)NC(=O)[C@H](Cc2cnc[nH]2)NC(=O)[C@H](Cc2ccc(-c3ccccc3)cc2)NC(=O)[C@H](C(C)C)NC(=O)[C@H](Cc2c[nH]c3ccccc23)NC(=O)[C@H](CC(=O)O)NC(=O)[C@H](Cc2ccc(OCC(=O)O)cc2)NC(=O)[C@H](Cc2ccccc2)NC(=O)CSC[C@@H](C(=O)N[C@@H](CC(N)=O)C(N)=O)NC(=O)[C@H](CO)NC(=O)[C@H](C(C)C)NC(=O)[C@H](CC2CCCCC2)NC(=O)[C@H](CCN)NC1=O", "note": "[Compound 2560] ({CH2CO}-FY(Carboxymethyl)DWV[Bip]H[Orn][dL][Dab][Cha]VSCN-NH2; thioether N-14)", "IC50": 9.4}, {"smiles": "CC(C)C[C@H]1NC(=O)[C@H](CCCN)NC(=O)[C@H](Cc2cnc[nH]2)NC(=O)[C@H](Cc2ccc(-c3ccccc3)cc2)NC(=O)[C@H](C(C)C)NC(=O)[C@H](Cc2c[nH]c3ccccc23)NC(=O)[C@H](CC(=O)O)NC(=O)[C@H](Cc2ccc(OCC(=O)O)cc2)NC(=O)[C@H](C(C)O)NC(=O)CSC[C@@H](C(=O)N[C@@H](CC(N)=O)C(N)=O)NC(=O)[C@H](CO)NC(=O)[C@H](C(C)C)NC(=O)[C@H](CC2CCCCC2)NC(=O)[C@H](CCN)NC1=O", "note": "(stereo partly drawn) [Compound 2561] ({CH2CO}-[Thr(3ξ)]Y(Carboxymethyl)DWV[Bip]H[Orn][dL][Dab][Cha]VSCN-NH2; thioether N-14)", "IC50": 8.2}]}]}
